Results reported in patent US20160229839A1, “Factor XIa Inhibitors” (Merck Sharp & Dohme Corp., priority 2013, published 2016).

target: T1, purified human Factor XIa (Homo sapiens, UniProt P03951); assay: Factor XIa Assay (fluorogenic substrate Z-Gly-Pro-Arg-AFC); assay type: biochemical; details: purified human Factor XIa 40 pM; Z-Gly-Pro-Arg-AFC 100 μM; 50 mM HEPES pH 7.4; read-out: hFXIa Ki (nM), Factor XIa inhibition
T1 construct: purified human Factor XIa; purchased Sekisui Diagnostics
Description: The effectiveness of compound of the present invention as inhibitors of Coagulation Factor XIa can be determined using a relevant purified serine protease, and an appropriate synthetic substrate. The rate of hydrolysis of the chromogenic or fluorogenic substrate by the relevant serine protease was measured both in the absence and presence of compounds of the present invention. Assays were conducted at room temperature or at 37° C. […] A decrease in the rate of fluorescence change in the presence of inhibitor is indicative of enzyme inhibition. Such methods are known to one skilled in the art. The results of this assay are expressed as the inhibitory constant, Ki.
Factor XIa determinations were made in 50 mM HEPES buffer at pH 7.4 containing 150 mM NaCl, 5 mM CaCl2, and 0.1% PEG 8000 (polyethylene glycol; J T Baker or Fisher Scientific). Determinations were made using purified human Factor XIa at a final concentration of 40 pM (Sekisui Diagnostics) and he synthetic substrate, Z-Gly-Pro-Arg-AFC, TFA salt (Sigma #C0980) at a concentration of 100 μM.
Activity assays were performed by diluting a stock solution of substrate at least tenfold to a final concentration ≦0.1 Km into a solution containing enzyme or enzyme equilibrated with inhibitor. Times required to achieve equilibration between enzyme and inhibitor were determined in control experiments. Initial velocities of product formation in the absence (Vo) or presence of inhibitor (Vi) were measured. Assuming competitive inhibition, and that unity is negligible compared Km/[S], [I]/e, and [I]/e (where [S], [I], and e respectively represent the total concentrations, of substrate, inhibitor and enzyme), the equilibrium constant (Ki) for dissociation of the inhibitor from the enzyme can be obtained from the dependence of Vo/Vi on [I] shown in the following equation.

T1 sequence (P03951 388-625 limits assumed): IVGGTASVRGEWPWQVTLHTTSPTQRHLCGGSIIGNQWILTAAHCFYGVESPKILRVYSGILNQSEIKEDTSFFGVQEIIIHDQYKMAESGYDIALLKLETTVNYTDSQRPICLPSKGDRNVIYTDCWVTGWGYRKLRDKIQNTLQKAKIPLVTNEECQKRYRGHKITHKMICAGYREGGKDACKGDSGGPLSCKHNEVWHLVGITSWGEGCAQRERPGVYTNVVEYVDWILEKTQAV
T1 sequence (P03951 19-387 partner limits assumed): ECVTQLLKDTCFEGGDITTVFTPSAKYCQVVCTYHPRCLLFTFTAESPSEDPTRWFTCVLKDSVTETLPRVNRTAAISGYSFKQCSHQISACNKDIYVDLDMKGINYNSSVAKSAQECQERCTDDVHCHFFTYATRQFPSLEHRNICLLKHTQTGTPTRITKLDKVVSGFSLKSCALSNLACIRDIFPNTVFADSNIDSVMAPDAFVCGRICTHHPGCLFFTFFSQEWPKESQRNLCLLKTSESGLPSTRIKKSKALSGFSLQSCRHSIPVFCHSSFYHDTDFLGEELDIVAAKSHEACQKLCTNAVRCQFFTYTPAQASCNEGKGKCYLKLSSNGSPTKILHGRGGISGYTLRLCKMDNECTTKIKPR

SMILES	Ki [nM]
CC(C)(C)OC(=O)c1ccc(NC(=O)C2C(c3ccccc3)CCCN2C(=O)/C=C/c2cc(Cl)ccc2-n2cnnn2)cc1 (racemic) [Example 1-1, (E)-tert-butyl 4-(1-(3-(5-chloro-2-(1H-tetrazol-1-yl)phenyl)acryloyl)-3-phenylpiperidine-2-carboxamido)benzoate]	> 10000
O=C(O)c1ccc(NC(=O)[C@@H]2[C@H](c3ccccc3)CCCN2C(=O)/C=C/c2cc(Cl)ccc2-n2cnnn2)cc1 (racemic) [Example 1-2, (E)-1-(2-(3-(2-((4-carboxyphenyl)carbamoyl)-3-phenylpiperidin-1-yl)-3-oxoprop-1-en-1-yl)-4-chlorophenyl)-1H-tetrazol-2-ium 2,2,2-trifluoroacetate]	80.9
NC1CCc2cc(C(=O)N3CCCC(c4ccccc4)C3C(=O)Nc3ccc(C(=O)O)cc3)ccc21 (racemic) [Example 1-14, 4-(1-(1-amino-2,3-dihydro-1H-indene-5-carbonyl)-3-phenylpiperidine-2-carboxamido)benzoic acid]	572
COC(=O)c1cccc(-c2c[nH]c(C3C(c4ccccc4)CCCN3C(=O)/C=C/c3cc(Cl)ccc3-n3cnnn3)n2)c1 (racemic) [Example 1-54, (E)-methyl 3-(2-(1-(3-(5-chloro-2-(1H-tetrazol-1-yl)phenyl)acryloyl)-3-phenylpiperidin-2-yl)-1H-imidazol-4-yl)benzoate]	> 10000
O=C(O)c1ccc(NC(=O)[C@@H]2[C@H](c3ccccc3)CCCN2C(=O)/C=C/c2cc(Cl)ccc2-n2cnnn2)cc1 (single isomer, unassigned) [Example 1-57]	7.6
O=C(O)c1cccc(-c2c[nH]c([C@@H]3[C@H](c4ccccc4)CCCN3C(=O)/C=C/c3cc(Cl)ccc3-n3cnnn3)n2)c1 (single isomer, unassigned) [Example 1-69]	19.3
O=C(O)c1cccc(-c2c[nH]c([C@H]3[C@@H](c4ccccc4)CCCN3C(=O)/C=C/c3cc(Cl)ccc3-n3cnnn3)n2)c1 (single isomer, unassigned) [Example 1-70]	5730
CC(C)(C)OC(=O)c1ccc(NC(=O)C2C(C3CCCCC3)CCCN2C(=O)/C=C/c2cc(Cl)ccc2-n2cnnn2)cc1 (stereo not shown) [Example 1-3, (E)-tert-butyl 4-(1-(3-(5-chloro-2-(1H-tetrazol-1-yl)phenyl)acryloyl)-3-cyclohexylpiperidine-2-carboxamido)benzoate]	> 10000
CC(C)(C)OC(=O)C1CCC(NC(=O)C2C(C3CCCCC3)CCCN2C(=O)/C=C/c2cc(Cl)ccc2-n2cnnn2)CC1 (stereo not shown) [Example 1-4, (E)-tert-butyl 4-(1-(3-(5-chloro-2-(1H-tetrazol-1-yl)phenyl)acryloyl)-3-cyclohexylpiperidine-2-carboxamido)cyclohexanecarboxylate]	> 10000
O=C(O)c1ccc(NC(=O)C2C(C3CCCCC3)CCCN2C(=O)/C=C/c2cc(Cl)ccc2-n2cnnn2)cc1 (stereo not shown) [Example 1-5, (E)-1-(2-(3-(2-((4-carboxyphenyl)carbamoyl)-3-cyclohexylpiperidin-1-yl)-3-oxoprop-1-en-1-yl)-4-chlorophenyl)-1H-tetrazol-2-ium 2,2,2-trifluoroacetate]	44
O=C(O)C1CCC(NC(=O)C2C(C3CCCCC3)CCCN2C(=O)/C=C/c2cc(Cl)ccc2-n2cnnn2)CC1 (stereo not shown) [Example 1-6, 2,2,2-trifluoroacetate]	5250
O=C(/C=C/c1cc(Cl)ccc1-n1cnnn1)N1CCCC(c2ccccc2)C1c1nc(-c2cccnc2)c[nH]1 (stereo not shown) [Example 1-7, (E)-3-(5-chloro-2-(1H-tetrazol-1-yl)phenyl)-1-(3-phenyl-2-(4-(pyridin-3-yl)-1H-imidazol-2-yl)piperidin-1-yl)prop-2-en-1-one]	905
N=C(N)N1CCC(C(=O)N2CCCC(c3ccccc3)C2C(=O)Nc2ccc(C(=O)O)cc2)CC1 (stereo not shown) [Example 1-8, 4-(1-(1-carbamimidoylpiperidine-4-carbonyl)-3-phenylpiperidine-2-carboxamido)benzoic acid]	15.4
O=C(O)c1ccc(NC(=O)C2C(c3ccccc3)CCCN2C(=O)CCc2cc(Cl)ccc2-n2cnnn2)cc1 (stereo not shown) [Example 1-9, 4-(1-(3-(5-chloro-2-(1H-tetrazol-1-yl)phenyl)propanoyl)-3-phenylpiperidine-2-carboxamido)benzoic acid]	57.1
O=C(O)c1ccc(NC(=O)C2C(c3cccc(F)c3)CCCN2C(=O)/C=C/c2cc(Cl)ccc2-n2cnnn2)cc1 (stereo not shown) [Example 1-10, (E)-4-(1-(3-(5-chloro-2-(H-tetrazol-1-yl)phenyl)acryloyl)-3-(3-fluorophenyl)piperidine-2-carboxamido)benzoic acid]	18.1
O=C(/C=C/c1cc(Cl)ccc1-n1cnnn1)N1CCCC(c2ccccc2)C1c1nc(-c2cccnc2)c[nH]1 [Example 1-11, (E)-3-(5-chloro-2-(1H-tetrazol-1-yl)phenyl)-1-(3-phenyl-2-(4-(pyridin-3-yl)-1H-imidazol-2-yl)piperidin-1-yl)prop-2-en-1-one (2R,3R)]	8650
O=C(/C=C/c1cc(Cl)ccc1-n1cnnn1)N1CCCC(c2ccccc2)C1c1nc(-c2cccnc2)c[nH]1 [Example 1-12, (E)-3-(5-chloro-2-(1H-tetrazol-1-yl)phenyl)-1-(3-phenyl-2-(4-(pyridin-3-yl)-1H-imidazol-2-yl)piperidin-1-yl)prop-2-en-1-one (2S,3S)]	570
O=C(/C=C/c1cc(Cl)ccc1-n1cnnn1)N1CCCC(c2ccccc2)C1c1nc(-c2ccc(F)cc2)c[nH]1 (stereo not shown) [Example 1-13, (E)-3-(5-chloro-2-(1H-tetrazol-1-yl)phenyl)-1-(2-(4-(4-fluorophenyl)-1H-imidazol-2-yl)-3-phenylpiperidin-1-yl)prop-2-en-1-one]	> 10000
CC(C)(N)c1ccc(C(=O)N2CCCC(c3ccccc3)C2C(=O)Nc2ccc(C(=O)O)cc2)cc1 (stereo not shown) [Example 1-15, 4-(1-(4-(2-aminopropan-2-yl)benzoyl)-3-phenylpiperidine-2-carboxamido)benzoic acid]	> 10000
N[C@H]1CCc2cc(C(=O)N3CCCC(c4ccccc4)C3C(=O)Nc3ccc(C(=O)O)cc3)ccc21 (stereo partly drawn) [Example 1-16, 4-(1-((S)-1-amino-2,3-dihydro-1H-indene-5-carbonyl)-3-phenylpiperidine-2-carboxamido)benzoic acid]	619
O=C(O)c1ccc(NC(=O)C2C(c3cccc(C(F)(F)F)c3)CCCN2C(=O)/C=C/c2cc(Cl)ccc2-n2cnnn2)cc1 (stereo not shown) [Example 1-17, ammonium (E)-4-(1-(3-(5-chloro-2-(1H-tetrazol-1-yl)phenyl)acryloyl)-3-(3-(trifluoromethyl)phenyl)piperidine-2-carboxamido)benzoate]	2850
O=C(O)c1ccc(NC(=O)C2C(c3ccc(F)cc3)CCCN2C(=O)/C=C/c2cc(Cl)ccc2-n2cnnn2)cc1 (stereo not shown) [Example 1-18, ammonium (E)-4-(1-(3-(5-chloro-2-(1H-tetrazol-1-yl)phenyl)acryloyl)-3-(4-fluorophenyl)piperidine-2-carboxamido)benzoate]	25.3
O=C(O)C1CCC(NC(=O)C2C(c3ccc(F)cc3F)CCCN2C(=O)/C=C/c2cc(Cl)ccc2-n2cnnn2)CC1 (stereo not shown) [Example 1-19, ammonium (E)-4-(1-(3-(5-chloro-2-(1H-tetrazol-1-yl)phenyl)acryloyl)-3-(2,4-difluorophenyl)piperidine-2-carboxamido)cyclohexanecarboxylate]	> 10000
NCc1ccc(C(=O)N2CCCC(c3ccccc3)C2C(=O)Nc2ccc(C(=O)O)cc2)cc1 (stereo not shown) [Example 1-20, (4-(2-((4-carboxyphenyl)carbamoyl)-3-phenylpiperidine-1-carbonyl)phenyl)methanaminium 2,2,2-trifluoroacetate]	627
O=C(/C=C/c1cc(Cl)ccc1-n1cnnn1)N1CCCC(c2ccccc2)C1c1nc(-c2ccc(Cl)cc2)c[nH]1 (stereo not shown) [Example 1-21, (E)-3-(5-chloro-2-(1H-tetrazol-1-yl)phenyl)-1-(2-(4-(4-chlorophenyl)-1H-imidazol-2-yl)-3-phenylpiperidin-1-yl)prop-2-en-1-one]	> 10000
N#Cc1ccc(-c2c[nH]c(C3C(c4ccccc4)CCCN3C(=O)/C=C/c3cc(Cl)ccc3-n3cnnn3)n2)cc1 (stereo not shown) [Example 1-22, (E)-4-(2-(1-(3-(5-chloro-2-(1H-tetrazol-1-yl)phenyl)acryloyl)-3-phenylpiperidin-2-yl)-1H-imidazol-4-yl)benzonitrile]	3260
O=C(CCc1cc(Cl)ccc1-n1cnnn1)N1CCCC(c2ccccc2)C1c1nc(-c2ccc(Cl)cc2)c[nH]1 (stereo not shown) [Example 1-23, 3-(5-chloro-2-(1H-tetrazol-1-yl)phenyl)-1-(2-(4-(4-chlorophenyl)-1H-imidazol-2-yl)-3-phenylpiperidin-1-yl)propan-1-one]	> 10000
N#Cc1ccc(-c2c[nH]c(C3C(c4ccccc4)CCCN3C(=O)CCc3cc(Cl)ccc3-n3cnnn3)n2)cc1 (stereo not shown) [Example 1-24, 4-(2-(1-(3-(5-chloro-2-(1H-tetrazol-1-yl)phenyl)propanoyl)-3-phenylpiperidin-2-yl)-1H-imidazol-4-yl)benzonitrile]	8510
